pIC50: −log10 of the molar value.
Legend:
Phospho-KIT (Tyr719) [1] = assay: GIST48 KIT Western Blot; assay type: cell-based; conditions: GIST48 cells, 4 hours, serum-free medium; read-out: pKIT suppression by western blot analysi GIST48
Method in brief: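 Phospho-KIT (Tyr719) was immunoblotted on PVDF and imaged in fluorescence mode after ECL Plus, with stripping and reprobing for total KIT. IC50 values were derived from the blot signals.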

c-KIT T670I kinase = molecular target: T1, c-KIT T670I kinase (Homo sapiens, UniProt P10721, T670I); assay: c-KIT T670I kinase assay; assay type: biochemical; conditions: enzymatic assay
T1 construct: The construct contains residues T544-V976 of cKit; GST (N); TEV cleavage site (internal); purchased deCODE Biostructures
Method in brief: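 Coupled spectrophotometric assay following NADH oxidation as absorbance decrease at 340 nm, monitored continuously for 5 h at 30 °C after adding serially diluted compound. Enzyme is a cKit construct with N-terminal tag, GST fusion and TEV site, carrying the T670I mutation.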

Phospho-KIT (Tyr719) [2] = molecular target: T2, Phospho-KIT (Tyr719) (Homo sapiens, UniProt P10721, K642E); assay: GIST882 KIT Western Blot; assay type: cell-based; conditions: GIST882 cells, 4 hours, serum-free medium; read-out: pKIT suppression by western blot analysi GIST 882
T2 construct: endogenous in cells; host or cells: GIST882
Procedure: (§1) GIST48, GIST430, and GIST882 cells were obtained from J. Fletcher (Brigham and Women's Hospital, Boston, MA). GIST T1 cells were obtained from B. Rubin (Cleveland Clinic, Cleveland, OH) and Professor Takahiro Taguchi (Kochi Medical School, Nankoku, Kochi, Japan). […] GIST430 cells were grown in Ham's F10 medium supplemented with 15% characterized fetal bovine serum (Invitrogen, Carlsbad, CA), 30 mg/L bovine pituitary extract (BD Biosciences, San Jose, CA), 0.5% Mito+ serum extender (BD Biosciences, San Jose, CA), 1 unit/mL penicillin G, 1 µg/ml streptomycin, and 0.29 mg/mL L-glutamine at 37 °C, 5%CO2, 95% humidity. GIST T1 cells were grown in DMEM medium supplemented with 10% characterized fetal bovine serum (Invitrogen, Carlsbad, CA), 1 unit/mL penicillin G, 1 µg/ml streptomycin, and 0.29 mg/mL L-glutamine at 37 °C, 5% CO2, and 95% humidity.
(§2) Two hundred fifty thousand cells were added per well in a 24-well tissue-culture treated plate. […] Medium was aspirated, cells were washed with PBS, and serum-free RPMI1640 medium was added. […] Cells were washed with PBS, then lysed. Cell lysates were separated by SDS-PAGE and transferred to PVDF. Phospho-KIT (Tyr719) was detected using an antibody from Cell Signaling Technology (Beverly, MA), ECL Plus detection reagent (GE Healthcare, Piscataway, NJ) and a Molecular Devices Storm 840 phosphorimager in fluorescence mode. Blots were stripped and probed for total KIT using an antibody from Santa Cruz Biotech (Santa Cruz, CA). IC50 values were calculated using Prism software (Graphpad, San Diego, CA).

Phospho-KIT (Tyr719) [3] = assay: GIST430 KIT Western Blot; assay type: cell-based; conditions: GIST430 cells, 4 hours, serum-free medium; read-out: pKIT suppression by western blot analysi GIST430
Procedure: as §1
as §2, with “One” for “Two”, “Ham's F10” for “RPMI1640”

c-KIT D816H kinase = molecular target: T3, c-KIT D816H kinase (Homo sapiens, UniProt P10721, D816H); assay: c-KIT D816H Kinase Assay; assay type: biochemical; conditions: enzymatic assay, ATP 200 µM
T3 construct: The construct contains residues T544-V976 of cKit; GST (N); TEV cleavage site (internal); purchased deCODE Biostructures
Method in brief: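 Coupled spectrophotometric assay following NADH oxidation as absorbance decrease at 340 nm, monitored continuously for 6 hours at 30 °C after adding serially diluted compound. Enzyme: mutant cKit construct with N-terminal tag, GST fusion and TEV cleavage site.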

c-KIT D816V kinase = molecular target: T4, c-KIT D816V kinase (Homo sapiens, UniProt P10721, D816V); assay: c-KIT D816V kinase Assay; assay type: biochemical; conditions: enzymatic assay, ATP 200 uM
T4 construct: residues T544-V976 with N-terminal GST fusion; purchased deCODE Biostructures
Method in brief: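 Coupled assay in which NADH oxidation was tracked as decreasing absorbance at 340 nm, continuously for 5 hours at 30 °C after adding serially diluted compound. Enzyme: cKit residues T544-V976 with N-terminal tag, GST fusion and TEV cleavage site.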

c-KIT kinase [4] = molecular target: T5, c-KIT kinase (Homo sapiens, UniProt P10721); assay: c-KIT kinase Assay; assay type: biochemical; parameters: cKIT residues T544-V976; GST (N); TEV cleavage site (internal); purchased deCODE Biostructures; conditions: enzymatic assay, ATP 200 µM; read-out: KIT (wt) IC50
Method in brief: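 Activity of wild-type human c-KIT kinase was followed as NADH oxidation, read as falling absorbance at 340 nm on a Synergy 2 plate reader (BioTeK) for 2 hours at 30 °C. Rates from the 0 to 1 h window were compared with an uninhibited control to give percent inhibition. IC50 values were fitted in GraphPad Prism across a range of inhibitor concentrations.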
Target sequence in this assay (P10721 544-976): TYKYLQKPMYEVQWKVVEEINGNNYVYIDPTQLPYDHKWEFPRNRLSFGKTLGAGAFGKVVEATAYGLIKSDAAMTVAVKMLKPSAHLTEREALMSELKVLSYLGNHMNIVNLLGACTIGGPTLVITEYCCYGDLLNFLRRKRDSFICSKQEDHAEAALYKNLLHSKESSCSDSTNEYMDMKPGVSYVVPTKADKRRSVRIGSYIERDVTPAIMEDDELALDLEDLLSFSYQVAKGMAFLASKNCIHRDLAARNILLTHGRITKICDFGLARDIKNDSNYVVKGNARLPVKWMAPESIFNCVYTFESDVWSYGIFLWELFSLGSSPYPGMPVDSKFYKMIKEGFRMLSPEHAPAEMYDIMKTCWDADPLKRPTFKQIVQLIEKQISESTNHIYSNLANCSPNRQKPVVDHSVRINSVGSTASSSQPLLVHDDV

c-KIT VVDV kinase = molecular target: T6, c-KIT VVDV kinase (Homo sapiens, UniProt P10721, D816V/DEL559-560); assay: cKIT-VVDV kinase Assay; assay type: biochemical; conditions: enzymatic assay; V559+V560 deletions and D816V mutation
T6 construct: This construct contains residues T544-V976 of cKit; GST (N); TEV cleavage site (internal); purchased deCODE Biostructures
Procedure: In this assay, the oxidation of NADH (measured by decrease in absorbance at 340 nm) was continuously monitored spectrophotometrically. […] The inhibition reaction was started by mixing serial diluted test compound with the above reaction mixture. The absorption at 340 nm was monitored continuously for 5 hours at 30 °C on Synergy 2 plate reader (BioTech). […] The protein construct was prepared by deCODE Biostructures using procedures known in the art. […] This construct is identical to Seq ID no.

c-KIT V654A kinase = molecular target: T7, c-KIT V654A kinase (Homo sapiens, UniProt P10721, V654A); assay: c-KIT V654A Kinase Assay; assay type: biochemical; conditions: enzymatic assay, ATP 200 µM
T7 construct: residues T544-V976 with N-terminal GST fusion; purchased deCODE Biostructures
Method in brief: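 Construct: cKIT residues T544–V976 with N-terminal tag, GST fusion and TEV site. Reaction started by adding serially diluted compound to the enzyme mixture; NADH oxidation, coupled to kinase turnover, followed as the decrease in A340 for 6 h at 30 °C.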

GIST430 cells = assay: GIST 430 Cell Proliferation Assay; assay type: cell-based; conditions: Homo sapiens, 120 h, 115 hours + 5 hours resazurin
Procedure: GIST48, GIST430, and GIST882 cells were obtained from J. Fletcher (Brigham and Women's Hospital, Boston, MA). GIST T1 cells were obtained from B. Rubin (Cleveland Clinic, Cleveland, OH) and Professor Takahiro Taguchi (Kochi Medical School, Nankoku, Kochi, Japan). Briefly, GIST48 and GIST 882 cells were grown in RPMI 1640 medium supplemented with 15% characterized fetal bovine serum (Invitrogen, Carlsbad, CA), 1 unit/mL penicillin G, 1 µg/ml streptomycin, and 0.29 mg/mL L-glutamine at 37 °C, 5% CO2, and 95% humidity. GIST430 cells were grown in Ham's F10 medium supplemented with 15% characterized fetal bovine serum (Invitrogen, Carlsbad, CA), 30 mg/L bovine pituitary extract (BD Biosciences, San Jose, CA), 0.5% Mito+ serum extender (BD Biosciences, San Jose, CA), 1 unit/mL penicillin G, 1 µg/ml streptomycin, and 0.29 mg/mL L-glutamine at 37 °C, 5%CO2, 95% humidity. GIST T1 cells were grown in DMEM medium supplemented with 10% characterized fetal bovine serum (Invitrogen, Carlsbad, CA), 1 unit/mL penicillin G, 1 µg/ml streptomycin, and 0.29 mg/mL L-glutamine at 37 °C, 5% CO2, and 95% humidity.
A serial dilution of test compound was dispensed into a 384-well black clear bottom plate (Corning, Corning, NY). Two thousand five-hundred cells were added per well in 50 µL complete growth medium. Plates were incubated for 115 hours at 37°C, 5% CO2, 95% humidity. At the end of the incubation period 10 µL of a 440 µM solution of resazurin (Sigma, St. Louis, MO) in PBS was added to each well and incubated for an additional 5 hours at 37°C, 5% CO2, 95% humidity. Plates were read on a Synergy2 reader (Biotek, Winooski, VT) using an excitation of 540 nm and an emission of 600 nm.

GIST T1 cells = assay: GIST T1 Cell Proliferation Assay; assay type: cell-based; conditions: Homo sapiens, GISTT1, 72 h, 68 hours + 4 hours resazurin
c-KIT kinase [5] = molecular target: T5, c-KIT kinase; assay: Kinase inhibitory profile of marketed inhibitors, c-KIT kinase; assay type: biochemical
Target sequence in this assay (P10721 26-976): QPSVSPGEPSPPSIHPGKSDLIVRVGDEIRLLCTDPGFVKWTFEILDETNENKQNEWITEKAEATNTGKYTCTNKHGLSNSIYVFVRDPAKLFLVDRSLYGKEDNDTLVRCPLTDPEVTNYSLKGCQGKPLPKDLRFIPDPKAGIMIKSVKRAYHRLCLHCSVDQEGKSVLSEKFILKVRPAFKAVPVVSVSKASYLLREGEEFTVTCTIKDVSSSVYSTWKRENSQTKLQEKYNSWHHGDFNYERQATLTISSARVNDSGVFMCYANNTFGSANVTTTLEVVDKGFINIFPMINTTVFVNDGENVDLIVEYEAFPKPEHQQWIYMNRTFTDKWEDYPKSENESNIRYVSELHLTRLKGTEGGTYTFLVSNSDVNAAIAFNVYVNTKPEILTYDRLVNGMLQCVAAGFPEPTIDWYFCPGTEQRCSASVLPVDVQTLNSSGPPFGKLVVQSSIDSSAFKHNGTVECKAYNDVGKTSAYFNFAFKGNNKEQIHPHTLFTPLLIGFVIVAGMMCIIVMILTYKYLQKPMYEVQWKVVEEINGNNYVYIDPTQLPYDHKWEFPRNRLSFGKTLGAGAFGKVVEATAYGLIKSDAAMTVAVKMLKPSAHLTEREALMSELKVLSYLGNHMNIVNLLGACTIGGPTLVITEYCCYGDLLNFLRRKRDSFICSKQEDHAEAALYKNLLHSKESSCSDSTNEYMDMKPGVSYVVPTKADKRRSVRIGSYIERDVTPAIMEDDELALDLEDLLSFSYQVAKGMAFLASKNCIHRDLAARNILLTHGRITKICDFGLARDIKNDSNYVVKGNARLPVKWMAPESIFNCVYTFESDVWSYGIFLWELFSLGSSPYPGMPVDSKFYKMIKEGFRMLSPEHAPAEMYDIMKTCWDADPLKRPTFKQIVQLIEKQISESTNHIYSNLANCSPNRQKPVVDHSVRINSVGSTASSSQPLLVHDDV

T1 sequence (P10721 544-976 T670I): as the sequence (P10721 544-976) above, with T127I counted along it
T6 sequence (P10721 with tags, fused parts or gaps DEL559-560/D816V): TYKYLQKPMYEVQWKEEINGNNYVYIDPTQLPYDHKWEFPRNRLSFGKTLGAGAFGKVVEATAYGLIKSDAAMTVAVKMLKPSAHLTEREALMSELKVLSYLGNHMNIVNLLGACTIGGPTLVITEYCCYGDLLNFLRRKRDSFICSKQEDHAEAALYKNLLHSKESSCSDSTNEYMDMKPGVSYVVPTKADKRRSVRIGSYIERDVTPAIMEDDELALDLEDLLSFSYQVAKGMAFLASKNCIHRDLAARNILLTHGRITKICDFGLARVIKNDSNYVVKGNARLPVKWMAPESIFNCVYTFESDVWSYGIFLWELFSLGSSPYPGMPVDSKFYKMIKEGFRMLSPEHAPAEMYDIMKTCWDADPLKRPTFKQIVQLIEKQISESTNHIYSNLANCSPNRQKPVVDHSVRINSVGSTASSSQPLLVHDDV
T3 sequence (P10721 544-976 D816H): as the sequence (P10721 544-976) above, with D273H counted along it
T4 sequence (P10721 544-976 D816V): as the sequence (P10721 544-976) above, with D273V counted along it
T7 sequence (P10721 544-976 V654A): as the sequence (P10721 544-976) above, with V111A counted along it
T2 sequence (P10721 26-976 K642E): as the sequence (P10721 26-976) above, with K617E counted along it

pIC50 (Phospho-KIT (Tyr719) [1])	pIC50 (c-KIT T670I kinase)	pIC50 (Phospho-KIT (Tyr719) [2])	pIC50 (Phospho-KIT (Tyr719) [3])	pIC50 (c-KIT D816H kinase)	pIC50 (c-KIT D816V kinase)	pIC50 (c-KIT kinase [4])	pIC50 (c-KIT VVDV kinase)	pIC50 (c-KIT V654A kinase)	Structure (SMILES)	pIC50 (GIST430 cells)	pIC50 (GIST T1 cells)	pIC50 (c-KIT kinase [5])
7.00 to 8.00	> 8.00	6.00 to 7.00	> 8.00	7.00 to 8.00	7.00 to 8.00	> 8.00	7.00 to 8.00	–	CCn1c(=O)c(-c2cc(NC(=O)Nc3cccc4ccccc34)c(F)cc2C)cc2cnc(NC)cc21 [Example 1, 1-(5-(1-ethyl-7-(methylamino)-2-oxo-1,2-dihydro-1,6-naphthyridin-3-yl)-2-fluoro-4-methylphenyl)-3-(naphthalen-1-yl)urea]	–	–	–
> 8.00	> 8.00	> 8.00	7.00 to 8.00	–	7.00 to 8.00	–	7.00 to 8.00	–	CNc1cc2c(cn1)cc(-c1cc(NC(=O)Nc3csc4ccccc34)c(F)cc1F)c(=O)n2C [Example 14, 1-(benzo[b]thiophen-3-yl)-3-(2,4-difluoro-5-(1-methyl-7-(methylamino)-2-oxo-1,2-dihydro-1,6-naphthyridin-3-yl)phenyl)urea]	–	–	–
7.00 to 8.00	7.00 to 8.00	7.00 to 8.00	7.00 to 8.00	7.00 to 8.00	7.00 to 8.00	> 8.00	7.00 to 8.00	> 8.00	CCn1c(=O)c(-c2cc(NC(=O)Nc3cccc(F)c3)c(F)cc2F)cc2cnc(NC)cc21 [Example 15, 1-(5-(1-ethyl-7-(methylamino)-2-oxo-1,2-dihydro-1,6-naphthyridin-3-yl)-2,4-difluorophenyl)-3-(3-fluorophenyl)urea]	–	–	–
6.00 to 7.00	7.00 to 8.00	7.00 to 8.00	6.00 to 7.00	7.00 to 8.00	7.00 to 8.00	> 8.00	7.00 to 8.00	> 8.00	CCn1c(=O)c(-c2cc(NC(=O)Nc3ccccc3)c(F)cc2F)cc2cnc(NC)cc21 [Example 16, 1-(5-(1-ethyl-7-(methylamino)-2-oxo-1,2-dihydro-1,6-naphthyridin-3-yl)-2,4-difluorophenyl)-3-phenylurea]	–	–	–
< 6.00	6.00 to 7.00	–	–	7.00 to 8.00	7.00 to 8.00	> 8.00	–	–	CCn1c(=O)c(-c2cc(NC(=O)Nc3ccccc3F)c(F)cc2C)cc2cnc(NC)cc21 [Example 38, 1-(5-(1-ethyl-7-(methylamino)-2-oxo-1,2-dihydro-1,6-naphthyridin-3-yl)-2-fluoro-4-methylphenyl)-3-(2-fluorophenyl)urea]	7.00 to 8.00	> 8.00	–
–	7.00 to 8.00	–	–	–	7.00 to 8.00	> 8.00	–	–	CCn1c(=O)c(-c2cc(NC(=O)Nc3ccccc3)c(F)cc2Cl)cc2cnc(NCCCOC)cc21 [Example 39, 1-(4-chloro-5-(1-ethyl-7-(3-methoxypropylamino)-2-oxo-1,2-dihydro-1,6-naphthyridin-3-yl)-2-fluorophenyl)-3-phenylurea]	7.00 to 8.00	–	–
–	6.00 to 7.00	–	–	7.00 to 8.00	7.00 to 8.00	> 8.00	6.00 to 7.00	7.00 to 8.00	CNc1cc2c(cn1)cc(-c1cc(NC(=O)Nc3cccc(F)c3)c(F)cc1F)c(=O)n2C(C)C [Example 40, 1-(2,4-difluoro-5-(1-isopropyl-7-(methylamino)-2-oxo-1,2-dihydro-1,6-naphthyridin-3-yl)phenyl)-3-(3-fluorophenyl)urea]	6.00 to 7.00	> 8.00	–
> 8.00	7.00 to 8.00	> 8.00	7.00 to 8.00	–	> 8.00	> 8.00	–	7.00 to 8.00	CC(=O)Nc1cc2c(cn1)cc(-c1cc(NC(=O)Nc3ccccc3)c(F)cc1Cl)c(=O)n2C(C)C [Example 86, N-(3-(2-chloro-4-fluoro-5-(3-phenylureido)phenyl)-1-isopropyl-2-oxo-1,2-dihydro-1,6-naphthyridin-7-yl)acetamide]	–	> 8.00	–
–	–	–	–	–	–	–	–	–	CCCS(=O)(=O)Nc1ccc(F)c(C(=O)c2c[nH]c3ncc(-c4ccc(Cl)cc4)cc23)c1F [Vemurafenib®, vemurafenib]	–	–	5.80
